Measurements from patent US6476021B1 (priority 1997, dated 2002).
Counter-ions that a name gives are not always drawn.

How the values were obtained:
[1] = molecular target: PDE type V (Canis lupus familiaris, UniProt O77746); assay: biochemical
[2] = molecular target: PDE type VI (Bos taurus, UniProt P11541+P23439); assay: biochemical
[3] = rat, in vivo, 100 mg/kg
[4] = intranasal administration
[5] = molecular target: PDE type III (Canis lupus familiaris, UniProt A0A8I3NYE0); settings: read-out: Inhibition Activity IC50 Type III; PDE type III from canine aorta; 1 μM substrate
[6] = rats
Source text: (§1) Eight-week-old male Wistar rats were anesthetized with intraperitoneal injection of urethane at 1 g/kg. The cervical portion was incised so that the trachea was exposed, and a polyethylene tube (SP120, Natsume) was inserted into the trachea. Then, a part of the esophagus was incised and a polyethylene tube with the same diameter was inserted into postnasal cavity, the tip was closed with absorbent cotton and glue. Leak of the drug solution from the nasoplatine was avoided by closing it with synthetic glue. Drugs were dissolved in 0.1% tartaric acid solution and administered through the nostrils at 500 μl/kg with micropipette and the nostrils were rapidly closed with glue. For the control, drugs were intravenously administered to rats. Constant volume of blood was intermittently collected from the tail vein into heparinized capillary after administration, and plasma was separated by centrifugation. Constant volume of plasma was extracted with t-butyl-methyl-ether three times and the organic phase was evaporated and dissolved in the HPLC initial phase. Constant volume of the organic phase was applied to the HPLC system equipped with an ultraviolet detector, and plasma drug concentration was determined with the reverse phase column. The time to reach the maximal concentration (Tmax), the mean residence time (MRT) and the mean absorption time (MAT) were calculated from measured values.

[7] = in vivo; settings: male, Wistar, rat, plasma, inhaled or intranasal, 0.3 mg/kg
Source text: as §1

Sequence of PDE type VI (P11541 2-856): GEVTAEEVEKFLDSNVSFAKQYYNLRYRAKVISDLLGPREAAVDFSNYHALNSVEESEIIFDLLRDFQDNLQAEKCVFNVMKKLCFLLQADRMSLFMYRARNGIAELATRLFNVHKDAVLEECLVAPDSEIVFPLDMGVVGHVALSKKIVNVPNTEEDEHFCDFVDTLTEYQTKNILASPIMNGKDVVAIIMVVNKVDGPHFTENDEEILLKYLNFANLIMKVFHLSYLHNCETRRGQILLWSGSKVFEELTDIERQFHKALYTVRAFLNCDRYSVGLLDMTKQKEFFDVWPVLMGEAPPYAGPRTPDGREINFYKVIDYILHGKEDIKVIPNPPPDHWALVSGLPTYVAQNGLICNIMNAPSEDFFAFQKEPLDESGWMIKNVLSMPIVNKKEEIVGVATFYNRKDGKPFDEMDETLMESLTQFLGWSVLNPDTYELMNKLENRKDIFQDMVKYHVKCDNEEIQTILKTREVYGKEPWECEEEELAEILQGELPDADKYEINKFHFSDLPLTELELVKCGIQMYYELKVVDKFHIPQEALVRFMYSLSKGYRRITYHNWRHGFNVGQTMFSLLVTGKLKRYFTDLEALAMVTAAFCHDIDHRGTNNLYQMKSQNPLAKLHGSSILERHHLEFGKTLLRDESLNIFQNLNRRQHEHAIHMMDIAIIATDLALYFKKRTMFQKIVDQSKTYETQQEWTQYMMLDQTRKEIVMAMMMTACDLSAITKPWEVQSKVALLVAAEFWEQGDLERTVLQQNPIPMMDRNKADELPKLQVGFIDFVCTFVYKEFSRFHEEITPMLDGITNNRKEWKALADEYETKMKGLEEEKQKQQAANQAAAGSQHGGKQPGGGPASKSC
Sequence of PDE type VI (P23439 2-850): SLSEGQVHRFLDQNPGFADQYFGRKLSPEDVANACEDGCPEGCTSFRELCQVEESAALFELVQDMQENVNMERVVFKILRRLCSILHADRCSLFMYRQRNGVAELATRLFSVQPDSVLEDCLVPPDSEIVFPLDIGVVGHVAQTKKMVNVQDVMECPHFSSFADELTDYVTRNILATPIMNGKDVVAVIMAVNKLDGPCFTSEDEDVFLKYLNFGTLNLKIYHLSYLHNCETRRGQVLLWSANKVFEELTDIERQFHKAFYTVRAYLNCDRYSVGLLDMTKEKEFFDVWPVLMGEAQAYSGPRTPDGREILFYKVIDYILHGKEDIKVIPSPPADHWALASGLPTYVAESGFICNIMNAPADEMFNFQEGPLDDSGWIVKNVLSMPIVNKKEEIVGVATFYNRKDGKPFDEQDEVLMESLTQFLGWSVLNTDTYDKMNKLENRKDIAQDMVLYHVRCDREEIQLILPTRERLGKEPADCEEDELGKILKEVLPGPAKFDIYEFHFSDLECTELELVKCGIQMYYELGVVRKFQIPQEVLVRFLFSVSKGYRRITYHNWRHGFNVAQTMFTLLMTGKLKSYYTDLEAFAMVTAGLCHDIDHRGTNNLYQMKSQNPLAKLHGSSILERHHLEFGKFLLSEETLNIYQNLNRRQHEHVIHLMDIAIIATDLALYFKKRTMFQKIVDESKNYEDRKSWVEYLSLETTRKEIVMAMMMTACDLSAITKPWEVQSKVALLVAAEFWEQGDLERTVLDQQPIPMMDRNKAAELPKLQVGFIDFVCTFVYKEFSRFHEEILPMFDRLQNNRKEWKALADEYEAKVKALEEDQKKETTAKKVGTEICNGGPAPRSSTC
Sequence of PDE type III (A0A8I3NYE0 1-1135): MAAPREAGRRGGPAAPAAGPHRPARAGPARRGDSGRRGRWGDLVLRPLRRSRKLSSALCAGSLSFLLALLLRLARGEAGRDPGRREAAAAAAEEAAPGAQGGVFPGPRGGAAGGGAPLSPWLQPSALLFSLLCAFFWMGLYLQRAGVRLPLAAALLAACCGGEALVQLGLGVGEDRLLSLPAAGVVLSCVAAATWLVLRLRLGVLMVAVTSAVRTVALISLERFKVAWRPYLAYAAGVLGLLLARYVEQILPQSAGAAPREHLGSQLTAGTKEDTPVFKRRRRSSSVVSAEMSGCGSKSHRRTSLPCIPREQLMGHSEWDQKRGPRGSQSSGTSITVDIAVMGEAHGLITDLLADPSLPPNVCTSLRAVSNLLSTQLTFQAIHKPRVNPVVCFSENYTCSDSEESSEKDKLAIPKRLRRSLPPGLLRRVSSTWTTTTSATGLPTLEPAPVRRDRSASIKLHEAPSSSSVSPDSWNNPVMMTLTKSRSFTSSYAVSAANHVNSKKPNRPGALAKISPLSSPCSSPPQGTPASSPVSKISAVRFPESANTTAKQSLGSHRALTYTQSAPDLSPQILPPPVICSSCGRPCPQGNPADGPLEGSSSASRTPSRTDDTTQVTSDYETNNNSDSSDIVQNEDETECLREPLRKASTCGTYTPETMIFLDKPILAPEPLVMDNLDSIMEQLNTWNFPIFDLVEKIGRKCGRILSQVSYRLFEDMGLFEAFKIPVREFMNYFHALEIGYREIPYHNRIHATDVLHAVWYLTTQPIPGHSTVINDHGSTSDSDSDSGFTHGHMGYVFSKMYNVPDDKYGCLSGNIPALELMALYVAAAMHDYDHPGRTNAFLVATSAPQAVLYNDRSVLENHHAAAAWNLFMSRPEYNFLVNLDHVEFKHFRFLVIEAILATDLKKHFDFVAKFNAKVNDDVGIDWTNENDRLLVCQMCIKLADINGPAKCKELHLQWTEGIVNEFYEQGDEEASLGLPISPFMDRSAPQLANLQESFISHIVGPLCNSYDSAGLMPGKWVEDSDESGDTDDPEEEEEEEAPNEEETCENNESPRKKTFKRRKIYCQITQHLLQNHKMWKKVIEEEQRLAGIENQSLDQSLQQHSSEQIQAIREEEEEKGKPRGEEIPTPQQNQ

melting point	SMILES	other results
277.1 to 280.3 °C	COc1cc2c3c(c1)c(=O)c(Cc1cccnc1)cn3-c1cc(Br)ccc1O2	–
189.1 to 191.3 °C	O=c1c(Cc2cccnc2)cn2c3c(cc(OCCCO)cc13)Sc1ccc(Br)cc1-2	–
160.3 to 163.3 °C	CN(C)CCCOc1cc2c3c(c1)c(=O)c(Cc1cccnc1)cn3-c1cc(Br)ccc1S2	–
137.3 to 138.1 °C	COc1cc2c3c(c1)c(=O)c(Cc1cccnc1)cn3-c1ccc(Br)cc1S2	–
215.7 to 218.4 °C	O=c1c(Cc2cccnc2)cn2c3c(cc(OCCCO)cc13)Sc1cc(Br)ccc1-2	–
165 °C (dec.)	O=c1c(Cc2cccnc2)cn2c3cc(Br)ccc3c(=O)c3cc(OCCCO)cc1c32 [Example 34, 10-bromo-5-(3-hydroxypropyloxy)-2-(3-pyridylmethyl)-3H,7H-pyrido[3,2,1-de]acridin-3,7-dione]	–
206.6 to 210.7 °C	COc1cc2c3c(c1)c(=O)c(Cc1cncnc1)cn3-c1cc(Br)ccc1S2	–
297.4 °C (dec.)	O=c1c(Cc2cccnc2)cn2c3c(cc(O)cc13)Sc1ccc(Br)cc1-2	–
218.1 to 219.3 °C	COc1cc2c3c(c1)c(=O)c(Cc1ccccc1)cn3-c1cc(Br)ccc1S2	–
247.5 to 251.1 °C	COc1cc2c(=O)c(Cc3cccnc3)cn3c4cc(Br)ccc4c(=O)c(c1)c23	–
185.7 to 187.4 °C	COc1cc2c3c(c1)c(=O)c(Cc1cccnc1)cn3-c1cc(Br)ccc1S2	–
> 300 °C	O=c1c(Cc2cccnc2)cn2c3cc(Br)ccc3c(=O)c3cc(O)cc1c32	–

Continued, molecule first:

SMILES	melting point	other results
O=c1ccn2c3c(cc(Cl)cc13)Oc1cc(Cl)ccc1-2	> 300 °C	–
CC(=O)N1c2ccccc2-n2ccc(=O)c3cccc1c32	275 °C (dec.)	–
O=c1c(Cc2cccnc2)cn2c3cc(Br)ccc3c(=O)c3cc(OCc4cccnc4)cc1c32 [Example 35, 10-bromo-2-(3-pyridylmethyl)-5-(3-pyridylmethyloxy)-3H,7H-pyrido[3,2,1-de]acridin-3,7-dione]	262.4 to 264.6 °C	IC50 [1]: 1.8 nM; IC50 [2]: 15 nM
O=c1c(Cc2cccnc2)cn2c3c(cc(OCCN4CCCCC4)cc13)Sc1ccc(Br)cc1-2 [Example 50]	166.5 to 169 °C	–
O=c1c(Cc2ccccc2)cn2c3c(cc(OCCCO)cc13)Sc1ccc(Br)cc1-2	152 to 168.3 °C	–
COc1cc2c3c(c1)c(=O)c(C)cn3-c1cc(Br)ccc1S2	231.7 to 233.7 °C	–
O=c1c(Cc2cccnc2)cn2c3c(cccc13)Oc1ccccc1-2 [Example 4, 2-(3-pyridylmethyl)-3H-pyrido[3,2,1-kl]phenoxazin-3-one]	–	body weights and general symptoms [3]: nothing abnormal; death of animals until the next day after the end of administration [3]: none of the animals were found to be dead
CC(C)N(CCOc1cc2c3c(c1)c(=O)c(Cc1cccnc1)cn3-c1cc(Br)ccc1S2)C(C)C [Example 51]	–	IC50 [1]: 11 nM; IC50 [2]: 180 nM
O=c1c(Cc2cccnc2)cn2c3c(cc(OCc4ccncc4)cc13)Sc1ccc(Br)cc1-2 [Example 43, 10-bromo-2-(3-pyridylmethyl)-5-(4-pyridylmethyloxy)-3H-pyrido[3,2,1-kl]phenothiazin-3-one]	194.2 to 196.1 °C	IC50 [1]: 2.8 nM; IC50 [2]: 36 nM
CC(=O)N1c2ccccc2-n2cc(Cc3ccccc3)c(=O)c3cccc1c32 [Example 10, 7-acetyl-2-benzyl-3H,7H-pyrido[3,2,1-de]phenazin-3-one]	–	body weights and general symptoms [3]: nothing abnormal; death of animals until the next day after the end of administration [3]: none of the animals were found to be dead
O=c1ccn2c3c(cccc13)Nc1ccccc1-2 [Example 14, 3H,7H-pyrido[3,2,1-depphenazin-3-one]	–	body weights and general symptoms [3]: nothing abnormal; death of animals until the next day after the end of administration [3]: none of the animals were found to be dead
O=c1c(Cc2cccnc2)cn2c3ccccc3c(=O)c3cccc1c32 [Example 18, 2-(3-pyridylmethyl)-3H,7H-pyrido[3,2,1-de]acridin-3,7-dione]	–	body weights and general symptoms [3]: nothing abnormal; death of animals until the next day after the end of administration [3]: none of the animals were found to be dead
O=c1ccn2c3c(cc(Cl)cc13)Sc1cc(Cl)ccc1-2	> 300 °C	–
O=c1c(Cc2ccccc2)cn2c3c(cc(O)cc13)Sc1ccc(Br)cc1-2	268.1 to 274.3 °C	–
O=c1c(Cc2cccnc2)cn2c3c(cc(OCc4cccnc4)cc13)Sc1ccc(Br)cc1-2 [Example 39, 10-bromo-2-(3-pyridylmethyl)-5-(3-pyridylmethyloxy)-3H-pyrido[3,2,1-kl]phenothiazin-3-one]	170.8 to 172.1 °C	IC50 [1]: 3.8 nM; abnormalities in nasal mucosa during the experimental period [4]: no abnormalities; irritativeness from the observation at drug administration [4]: no irritativeness; IC50 [2]: 61 nM
O=c1ccn2c3ccc(Cl)cc3c3cncc1c32	280 °C (dec.)	–
O=c1ccn2c3cnccc3c3cccc1c32	211.3 °C (dec.)	–
CCCc1nn(C)c2c(=O)[nH]c(-c3cc(S(=O)(=O)N4CCN(C)CC4)ccc3OCC)nc12 [Sildenafil, 5-[2-ethoxy-5-(4-methylpiperazin-1-ylsulphonyl)phenyl]-1-methyl-3-propyl-6,7-dihydro-1H-pyrazolo[4,3-d]pyrimidin-7-one citrate]	–	IC50 [5]: 13000 nM
Cc1cn2c3c(cc(OCCCO)cc3c1=O)Sc1ccc(Br)cc1-2	188.9 to 197.8 °C	–
CN1c2ccccc2-n2ccc(=O)c3cccc1c32	232.8 to 234.5 °C	–
Cc1cn2c3c(cc(O)cc3c1=O)Sc1ccc(Br)cc1-2	> 300 °C	–
CS(=O)(=O)O.CS(=O)(=O)O.O=c1c(Cc2cccnc2)cn2c3c(cc(OCc4cccnc4)cc13)Sc1ccc(Br)cc1-2 [Example 81, 10-bromo-2-(3-pyridylmethyl)-5-(3-pyridylmethyloxy)-3H-pyrido[3,2,1-kl]phenothiazin-3-one dimethanesulfonate]	238.7 to 242.3 °C	absorption by intranasal administration [6]: rapid and effective absorption; Tmax and MRT in comparison with oral administration ([6]; intranasal administration): shortened; duration ([6]; intranasal administration): proper duration; first-pass effect ([6]; intranasal administration): no first-pass effect; MAT ([6]; intranasal administration, dose 0.3 mg/kg): 0.2 ˜ 0.3 hr; MRT [7]: 48 to 60 min; Tmax [7]: 12 to 30 min
O=c1c(Cc2cccnc2)cn2c3c(cc(OCc4ccccn4)cc13)Sc1ccc(Br)cc1-2 [Example 44, 10-bromo-2-(3-pyridylmethyl)-5-(2-pyridylmethyloxy)-3H-pyrido[3,2,1-kl]phenothiazin-3-one]	94.6 to 96.4 °C	–
